From ChEMBL document CHEMBL5620349, “Recent advance of small-molecule drugs for clinical treatment of multiple myeloma” (Eur J Med Chem, 2023)
Counter-ions that a name gives are not always drawn.

Columns and labels:
[1] = target: Beta-2 adrenergic receptor (Homo sapiens, UniProt P07550); test: Agonist activity at Adrenergic beta2 receptor (unknown origin); assay type: functional
[2] = target: Nuclear factor NF-kappa-B complex (Homo sapiens, UniProt P19838+Q00653+Q04206); test: Inhibition of NF-kappaB (unknown origin); assay type: protein-complex assay
Nuclear factor NF-kappa-B complex, sequence (P19838 1-433 limits assumed): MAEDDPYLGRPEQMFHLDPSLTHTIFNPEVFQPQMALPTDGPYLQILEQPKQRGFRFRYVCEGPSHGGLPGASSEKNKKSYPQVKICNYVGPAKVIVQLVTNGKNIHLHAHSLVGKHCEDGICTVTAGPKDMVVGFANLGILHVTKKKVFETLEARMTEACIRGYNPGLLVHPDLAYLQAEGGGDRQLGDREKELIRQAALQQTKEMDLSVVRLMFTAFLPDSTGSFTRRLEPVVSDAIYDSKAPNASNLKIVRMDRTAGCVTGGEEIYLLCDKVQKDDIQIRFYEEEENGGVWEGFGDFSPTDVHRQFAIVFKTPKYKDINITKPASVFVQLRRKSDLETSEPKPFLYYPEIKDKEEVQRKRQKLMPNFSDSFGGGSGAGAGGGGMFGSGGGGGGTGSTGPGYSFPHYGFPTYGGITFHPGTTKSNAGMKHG
Nuclear factor NF-kappa-B complex, sequence (Q00653 1-454 limits assumed): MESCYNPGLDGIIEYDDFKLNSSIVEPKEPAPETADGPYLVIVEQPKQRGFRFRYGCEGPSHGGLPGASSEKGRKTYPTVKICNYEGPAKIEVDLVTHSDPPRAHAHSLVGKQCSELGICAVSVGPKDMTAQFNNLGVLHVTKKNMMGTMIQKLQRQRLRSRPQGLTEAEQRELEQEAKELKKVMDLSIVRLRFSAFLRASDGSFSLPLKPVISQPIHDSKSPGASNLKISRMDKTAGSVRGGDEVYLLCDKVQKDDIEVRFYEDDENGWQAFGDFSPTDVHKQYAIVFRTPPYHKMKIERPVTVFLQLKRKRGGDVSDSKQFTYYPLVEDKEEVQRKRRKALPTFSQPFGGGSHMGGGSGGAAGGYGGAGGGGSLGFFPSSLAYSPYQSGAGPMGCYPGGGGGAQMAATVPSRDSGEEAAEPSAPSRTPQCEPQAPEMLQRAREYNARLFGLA
Nuclear factor NF-kappa-B complex, sequence (Q04206 whole entry): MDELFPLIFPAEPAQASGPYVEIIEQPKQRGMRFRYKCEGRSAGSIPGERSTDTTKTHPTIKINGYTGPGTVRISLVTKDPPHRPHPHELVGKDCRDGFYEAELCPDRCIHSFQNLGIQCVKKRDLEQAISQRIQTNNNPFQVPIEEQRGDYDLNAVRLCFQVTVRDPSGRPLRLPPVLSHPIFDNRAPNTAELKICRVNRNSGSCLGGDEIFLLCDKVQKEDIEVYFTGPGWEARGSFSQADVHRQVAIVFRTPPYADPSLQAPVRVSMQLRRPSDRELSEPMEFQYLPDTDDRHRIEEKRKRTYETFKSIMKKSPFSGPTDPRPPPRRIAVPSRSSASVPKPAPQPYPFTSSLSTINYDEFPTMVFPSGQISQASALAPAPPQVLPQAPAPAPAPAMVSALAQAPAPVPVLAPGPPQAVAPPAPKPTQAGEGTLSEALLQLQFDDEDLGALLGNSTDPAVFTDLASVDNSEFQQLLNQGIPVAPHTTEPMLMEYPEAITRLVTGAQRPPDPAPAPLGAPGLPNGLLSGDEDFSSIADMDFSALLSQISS

[3] = tested on: Human immunodeficiency virus 2; test: Antiviral activity against HIV-2
Protein smoothened [4] = target: Protein smoothened (Homo sapiens, UniProt Q99835); test: Antagonist activity at human SMO
Protein smoothened (Homo sapiens, UniProt Q99835), sequence (Q99835 whole entry): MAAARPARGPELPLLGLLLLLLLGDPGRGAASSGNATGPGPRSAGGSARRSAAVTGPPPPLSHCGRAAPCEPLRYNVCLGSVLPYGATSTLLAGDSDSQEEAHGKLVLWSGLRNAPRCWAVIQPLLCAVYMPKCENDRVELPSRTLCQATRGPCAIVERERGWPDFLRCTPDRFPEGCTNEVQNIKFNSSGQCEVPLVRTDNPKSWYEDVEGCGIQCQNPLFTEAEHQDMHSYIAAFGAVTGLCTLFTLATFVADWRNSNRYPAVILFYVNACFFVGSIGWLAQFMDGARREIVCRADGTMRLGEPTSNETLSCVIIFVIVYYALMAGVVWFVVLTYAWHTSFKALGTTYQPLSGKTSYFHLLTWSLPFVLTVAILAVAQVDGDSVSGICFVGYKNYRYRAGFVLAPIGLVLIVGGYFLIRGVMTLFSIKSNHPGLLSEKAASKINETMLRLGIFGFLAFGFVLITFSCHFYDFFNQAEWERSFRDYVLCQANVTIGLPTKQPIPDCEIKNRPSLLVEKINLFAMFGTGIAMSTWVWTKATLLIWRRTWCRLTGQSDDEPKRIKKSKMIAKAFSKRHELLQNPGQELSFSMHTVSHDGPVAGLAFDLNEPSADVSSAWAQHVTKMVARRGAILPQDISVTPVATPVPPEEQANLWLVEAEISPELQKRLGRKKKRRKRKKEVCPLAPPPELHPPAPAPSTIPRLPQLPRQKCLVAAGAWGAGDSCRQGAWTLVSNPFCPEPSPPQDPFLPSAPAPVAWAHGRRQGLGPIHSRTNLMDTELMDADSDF

Protein smoothened [5] = target: Protein smoothened (Mus musculus, UniProt P56726); test: Antagonist activity at mouse SMO
Protein smoothened (Mus musculus, UniProt P56726), sequence (P56726 whole entry): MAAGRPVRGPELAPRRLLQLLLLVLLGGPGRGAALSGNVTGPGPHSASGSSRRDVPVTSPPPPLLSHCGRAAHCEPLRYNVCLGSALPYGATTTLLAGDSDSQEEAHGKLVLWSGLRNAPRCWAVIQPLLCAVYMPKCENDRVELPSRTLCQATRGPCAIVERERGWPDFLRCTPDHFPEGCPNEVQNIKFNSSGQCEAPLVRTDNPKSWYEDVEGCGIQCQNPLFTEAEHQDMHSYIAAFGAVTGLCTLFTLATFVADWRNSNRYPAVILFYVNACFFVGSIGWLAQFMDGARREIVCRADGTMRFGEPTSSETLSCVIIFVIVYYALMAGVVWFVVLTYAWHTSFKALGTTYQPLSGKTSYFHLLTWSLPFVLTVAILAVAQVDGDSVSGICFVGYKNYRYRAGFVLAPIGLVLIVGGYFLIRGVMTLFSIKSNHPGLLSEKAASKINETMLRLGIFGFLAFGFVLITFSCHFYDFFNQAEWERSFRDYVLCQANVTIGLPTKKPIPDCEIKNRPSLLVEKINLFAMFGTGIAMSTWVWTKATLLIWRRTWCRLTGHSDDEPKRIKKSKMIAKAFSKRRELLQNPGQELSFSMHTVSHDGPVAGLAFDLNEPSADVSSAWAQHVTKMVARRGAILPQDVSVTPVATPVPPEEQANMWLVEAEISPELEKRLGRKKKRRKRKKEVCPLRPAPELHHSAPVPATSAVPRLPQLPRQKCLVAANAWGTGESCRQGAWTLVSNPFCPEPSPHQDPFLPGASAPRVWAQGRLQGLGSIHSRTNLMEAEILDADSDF

[6] = Inhibition of 20s proteasome beta2 (unknown origin) mediated […] activity; parameters: species or system Homo sapiens
[7] = Inhibition of 20s proteasome beta1 (unknown origin) mediated […] activity; parameters: species or system Homo sapiens

Beta-2 adrenergic receptor, sequence (P07550 whole entry): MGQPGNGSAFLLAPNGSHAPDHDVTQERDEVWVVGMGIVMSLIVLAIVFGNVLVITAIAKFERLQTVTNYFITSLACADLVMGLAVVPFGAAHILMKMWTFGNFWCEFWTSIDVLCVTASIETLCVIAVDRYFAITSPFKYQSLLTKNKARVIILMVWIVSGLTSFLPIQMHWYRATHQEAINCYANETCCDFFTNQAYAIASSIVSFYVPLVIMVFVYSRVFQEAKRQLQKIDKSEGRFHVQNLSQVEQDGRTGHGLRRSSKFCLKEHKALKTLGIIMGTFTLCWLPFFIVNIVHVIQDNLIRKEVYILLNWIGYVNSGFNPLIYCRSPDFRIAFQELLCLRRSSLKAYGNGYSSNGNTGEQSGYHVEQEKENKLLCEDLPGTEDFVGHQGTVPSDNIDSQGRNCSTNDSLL

**Q.** With `C[C@@H]1C[C@H]2[C@@H]3CCC4=CC(=O)C=C[C@]4(C)[C@@]3(F)[C@@H](O)C[C@]2(C)[C@@]1(O)C(=O)CO` [DEXAMETHASONE] as the compound, how does the EC50 [1] read?
**A.** 2.2 nM

**Q.** What about the IC50 [2] of the same compound?
**A.** 0.5 nM

**Q.** With `c1cc(CN2CCCNCCNCCCNCC2)ccc1CN1CCCNCCNCCCNCC1` [PLERIXAFOR] as the compound, how does the EC50 [3] read?
**A.** 1 nM

**Q.** What does the source list for `Cc1c(C(=O)Nc2ccc(N3C[C@@H](C)O[C@@H](C)C3)nc2)cccc1-c1ccc(OC(F)(F)F)cc1` [SONIDEGIB PHOSPHATE]?
**A.** IC50 (Protein smoothened [4]): 2.5 nM; IC50 (Protein smoothened [5]): 1.3 nM

**Q.** Which IC50 [6] does the source give for `CC(C)C[C@H](NC(=O)CNC(=O)c1cc(Cl)ccc1Cl)B1OC(=O)C(CC(=O)O)(CC(=O)O)O1` [IXAZOMIB CITRATE] here?
**A.** 3500 nM

**Q.** And the IC50 [7]?
**A.** 31 nM
